Source: patent US5583142A, “Analgesic and nootropic drugs” (priority 1992, dated 1996)
Where two headings read alike, the source gives them in different places.

Legend:
[1] = mouse passive avoidance test, amnesia induced by hypoxia; assay type: in vivo; conditions: 30 to 300 mg/kg i.p.
Description: The nootropic action (learning facilitation, memory enhancement, intelligence booster, cognition activation) was assessed both in mouse and in rat by the two following methods: the mouse was tested by the passive avoidance method, using the so-called light-dark box. A painful stimulus, i.e. an electrically-evoked shock through the animal paws, and an unpleasant but not painful stimulus (mice fall into a water-ice mixture ensuing a sudden dark box floor opening) were used. A non-painful stimulus was required because the data referred to learning had not to be untruthfully negative due to the analgesic action of the claimed molecules. The painful stimulus (electric shock), like the unpleasant but not painful one, was effective at the interval of doses at which the claimed molecules were clearly nootropic but not yet analgesic. Independently of the type of stimulus used, the procedure consists of two experimental phases denominated, respectively, Training and Retention, the latter being carried out 24 hrs after the former. […] To this purpose the time taken by mice to enter the dark box is measured again: the longer the time recorded in the second day when compared with the first (Retention minus Training), the higher the mice learning and memorizing capabilities. […]

[2] = mouse
Description: In FIGS. 7 and 7 bis vertical lines give s.e. mean. Each column represents the mean of 6-10 mice. SM-21 maleate, PG-9 maleate, SM-32 oxalate, cocaine HCl, amphetamine sulphate and caffeine were administered 15 min before test.

[3] = test system: presynaptic muscarinic autoreceptor; conditions: cited from earlier work

Row | SMILES | motor activity and curiosity (exploration activity) ([2]; FIG. 7 and FIG. 7 bis) | selectivity and efficacy as antagonists of the presynaptic muscarinic autoreceptor [3] | also measured
1 | NC(=O)CN1CCCC1=O [Piracetam] | – | – | effect on amnesia induced by hypoxia [1]: inactive
2 | CC(N)Cc1ccccc1 (centres unmarked) [amphetamine] | remarkably increase the motor activity | – | –
3 | Cn1c(=O)c2c(ncn2C)n(C)c1=O [caffeine] | remarkably increase the motor activity | – | –
4 | COC(=O)[C@H]1[C@@H](OC(=O)c2ccccc2)C[C@@H]2CC[C@H]1N2C [cocaine] | – | – | motor activity and curiosity (exploration activity) ([2]; in vivo): remarkably increase the motor activity
5 | Cc1cccc(C)c1OCC(C)N (centres unmarked) [mexyletine] | – | little selective as well as little efficacious | –
6 | CN1CCC[C@H]1c1cccnc1 [nicotine] | remarkably increase the motor activity | – | –
7 | CCN(CC)CCNC(=O)c1ccc(N)cc1 [procainamide] | – | little selective as well as little efficacious | –
8 | CCN(CC)CCOC(=O)c1ccc(N)cc1 [procaine] | – | little selective as well as little efficacious | –
